In US6525001B1, “Substituted pyrimidine and pyridine herbicides” (Mid-American Commercialization Corporation, priority 1997, dated 2003):

What was measured:
Type in all cases: in vivo
[1] = system: duck salad (Heteranthera limosa); assay: Test B flood test
Method in brief: (§1)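 Each value is a visual injury score relative to controls, with 10 meaning complete control and 0 no effect. Evaluation took place twelve to sixteen days after the 2-leaf-stage plants were treated and kept in the greenhouse.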

[2] = system: smallflower flatsedge (Cyperus difformis); assay: Test B flood test
Method in brief: as §1

[3] = system: bamyardgrass (Echinochloa crus-galli); assay: Test B flood test
Method in brief: as §1

rice (Oryza sativa) = assay: Test B flood test
Method in brief: as §1

[4] = system: crabgrass (Digitaria sanguinalis); assay: Test B pre-/postemergence; parameters: key: 0 is no effect; 10 is complete control; details: for Crabgrass plant response rating: Preemergence
Method in brief: (§2)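 Response scores run from 0, meaning no effect, to 10, meaning complete control, assigned by eye relative to controls twelve to sixteen days after spraying. Treatment was both preemergence on planted seed and postemergence on plants at the 1- to 4-leaf stage.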

[5] = system: blackgrass (Alopecurus myosuroides); assay: Test B pre-/postemergence; parameters: key: 0 is no effect; 10 is complete control; details: for Blackgrass plant response rating: Preemergence
Method in brief: as §2

[6] = system: cocklebur (Xanthium strumarium); assay: Test B pre-/postemergence; parameters: key: 0 is no effect; 10 is complete control; details: for Cocklebur plant response rating: Preemergence
Method in brief: as §2

wild oat (Avena fatua) = assay: Test B pre-/postemergence; parameters: key: 0 is no effect; 10 is complete control
Method in brief: as §2

[7] = system: broadleaf signalgrass (Brachiaria decumbens); assay: Test B pre-/postemergence; parameters: key: 0 is no effect; 10 is complete control; details: for B. signalgrass plant response rating: Preemergence
Method in brief: as §2

[8] = system: velvetleaf (Abutilon theophrasti); assay: Test B pre-/postemergence; parameters: key: 0 is no effect; 10 is complete control
Method in brief: as §2

corn (Zea mays) = assay: Test B pre-/postemergence; parameters: key: 0 is no effect; 10 is complete control; details: for Corn plant response rating: Preemergence
Method in brief: as §2

soybean (Glycine max) = assay: Test B pre-/postemergence; parameters: key: 0 is no effect; 10 is complete control
Method in brief: as §2

[9] = system: sugar beet (Beta vulgaris); assay: Test B pre-/postemergence; parameters: key: 0 is no effect; 10 is complete control
Method in brief: as §2

[10] = system: purple nutsedge (Cyperus rotundus); assay: Test B pre-/postemergence; parameters: key: 0 is no effect; 10 is complete control; details: Postemergence
Method in brief: as §2

rape (Brassica napus) = assay: Test B pre-/postemergence; parameters: key: 0 is no effect; 10 is complete control
Method in brief: as §2

[11] = system: pigweed (Amaranthus retroflexus); assay: Test B pre-/postemergence; parameters: key: 0 is no effect; 10 is complete control
Method in brief: as §2

[12] = system: giant foxtail (Setaria faberii); assay: Test B pre-/postemergence; parameters: key: 0 is no effect; 10 is complete control
Method in brief: as §2

[13] = system: momingglory (Ipomoea hederacea); assay: Test B pre-/postemergence; parameters: key: 0 is no effect; 10 is complete control
Method in brief: as §2

[14] = system: wheat (Triticum aestivum); assay: Test B pre-/postemergence; parameters: key: 0 is no effect; 10 is complete control
Method in brief: as §2

[15] = system: bedstraw (Galium aparine); assay: Test B pre-/postemergence; parameters: key: 0 is no effect; 10 is complete control; details: for Bedstraw plant response rating: Preemergence
Method in brief: as §2

[16] = Rate 62 g/ha, Postemergence (flood test)
[17] = Rate 125 g/ha, Postemergence, flood test
[18] = Rate 250 g/ha, Postemergence (flood test species)
[19] = Rate 125 g/ha, Postemergence section (flood test species)
[20] = Rate 250 g/ha, Postemergence (so in the source)

Q: Which results are given for CCc1cnc(-c2ccc(C(F)(F)F)cc2)nc1Cc1cccc(OC(F)(F)F)c1 [Compound 41]?
A: Plant response rating, Ducksalad [1, 16]: 2; Plant response rating, Ducksalad [1, 17]: 3; Plant response rating, Ducksalad [1, 18]: 5; Plant response rating, S. Flatsedge [2, 16]: 5; S. Flatsedge plant response rating [2, 19]: 7; Plant response rating, S. Flatsedge [2, 18]: 9; Plant response rating, Barnyardgrass [3, 16]: 5; Plant response rating, Barnyardgrass [3, 17]: 5; Plant response rating, Barnyardgrass [3, 18]: 5; Plant response rating, Rice (rice (Oryza sativa); [16]): 5; Rice plant response rating (rice (Oryza sativa); [19]): 5; Plant response rating, Rice (rice (Oryza sativa); [18]): 6; Plant response rating, Crabgrass ([4]; Rate 62 g/ha, Postemergence): 7; Crabgrass plant response rating ([4]; Rate 62 g/ha): 8; Plant response rating, Crabgrass ([4]; Rate 125 g/ha, Postemergence): 9; Crabgrass plant response rating ([4]; Rate 125 g/ha): 9; Plant response rating, Crabgrass ([4]; Rate 250 g/ha, Postemergence): 10; Plant response rating, Crabgrass [4, 20]: 9; Plant response rating, Blackgrass ([5]; Rate 62 g/ha, Postemergence): 5; Blackgrass plant response rating ([5]; Rate 62 g/ha): 7; Plant response rating, Blackgrass ([5]; Rate 125 g/ha, Postemergence): 6; Blackgrass plant response rating ([5]; Rate 125 g/ha): 9; Plant response rating, Blackgrass ([5]; Rate 250 g/ha, Postemergence): 8; Plant response rating, Blackgrass [5, 20]: 10; Plant response rating, Cocklebur ([6]; Rate 62 g/ha, Postemergence): 7; Cocklebur plant response rating ([6]; Rate 62 g/ha): 0; Plant response rating, Cocklebur ([6]; Rate 125 g/ha, Postemergence): 8; Cocklebur plant response rating ([6]; Rate 125 g/ha): 0; Plant response rating, Cocklebur ([6]; Rate 250 g/ha, Postemergence): 9; Plant response rating, Cocklebur [6, 20]: 0; Wild oats plant response rating (wild oat (Avena fatua); Rate 62 g/ha, Postemergence): 4; Wild oats plant response rating (wild oat (Avena fatua); Rate 62 g/ha, Preemergence): 4; Wild oats plant response rating (wild oat (Avena fatua); Rate 125 g/ha, Postemergence): 5; Plant response rating, Wild oats (wild oat (Avena fatua); Rate 125 g/ha, Preemergence): 9; Plant response rating, Wild oats (wild oat (Avena fatua); Rate 250 g/ha, Postemergence): 7; Plant response rating, Wild oats (wild oat (Avena fatua); [20]): 9; Plant response rating, B. signalgrass ([7]; Rate 62 g/ha, Postemergence): 2; B. signalgrass plant response rating ([7]; Rate 62 g/ha): 2; Plant response rating, B. signalgrass ([7]; Rate 125 g/ha, Postemergence): 3; B. signalgrass plant response rating ([7]; Rate 125 g/ha): 6; Plant response rating, B. signalgrass ([7]; Rate 250 g/ha, Postemergence): 6; Plant response rating, B. signalgrass ([7]; Rate 250 g/ha, Postemergence as printed in head r139 (second section for compounds 26-50)): 7; Plant response rating, Velvetleaf ([8]; Rate 62 g/ha, Postemergence): 8; Velvetleaf plant response rating ([8]; Rate 62 g/ha, Preemergence): 1; Velvetleaf plant response rating ([8]; Rate 125 g/ha, Postemergence): 8; Plant response rating, Velvetleaf ([8]; Rate 125 g/ha, Preemergence): 3; Plant response rating, Velvetleaf ([8]; Rate 250 g/ha, Postemergence): 8; Plant response rating, Velvetleaf [8, 20]: 10; Plant response rating, Corn (corn (Zea mays); Rate 62 g/ha, Postemergence): 2; Corn plant response rating (corn (Zea mays); Rate 62 g/ha): 0; Plant response rating, Corn (corn (Zea mays); Rate 125 g/ha, Postemergence): 2; Corn plant response rating (corn (Zea mays); Rate 125 g/ha): 1; Plant response rating, Corn (corn (Zea mays); Rate 250 g/ha, Postemergence): 3; Plant response rating, Corn (corn (Zea mays); [20]): 1; Plant response rating, Soybean (soybean (Glycine max); Rate 62 g/ha, Postemergence): 5; Soybean plant response rating (soybean (Glycine max); Rate 62 g/ha, Preemergence): 0; Soybean plant response rating (soybean (Glycine max); Rate 125 g/ha, Postemergence): 7; Plant response rating, Soybean (soybean (Glycine max); Rate 125 g/ha, Preemergence): 0; Plant response rating, Soybean (soybean (Glycine max); Rate 250 g/ha, Postemergence): 7; Plant response rating, Soybean (soybean (Glycine max); [20]): 1; Plant response rating, Sugarbeets ([9]; Rate 62 g/ha, Postemergence): 10; Sugarbeets plant response rating ([9]; Rate 62 g/ha, Preemergence): 3; Sugarbeets plant response rating ([9]; Rate 125 g/ha, Postemergence): 10; Plant response rating, Sugarbeets ([9]; Rate 125 g/ha, Preemergence): 6; Plant response rating, Sugarbeets ([9]; Rate 250 g/ha, Postemergence): 10; Plant response rating, Sugarbeets [9, 20]: 8; Plant response rating, Nutsedge ([10]; Rate 62 g/ha): 0; Nutsedge plant response rating ([10]; Rate 125 g/ha): 0; Plant response rating, Nutsedge ([10]; Rate 250 g/ha): 0; Plant response rating, Rape (rape (Brassica napus); Rate 62 g/ha, Postemergence): 10; Rape plant response rating (rape (Brassica napus); Rate 62 g/ha, Preemergence): 3; Rape plant response rating (rape (Brassica napus); Rate 125 g/ha, Postemergence): 10; Rape plant response rating (rape (Brassica napus); Rate 125 g/ha, Preemergence): 3; Plant response rating, Rape (rape (Brassica napus); Rate 250 g/ha, Postemergence): 10; Plant response rating, Rape (rape (Brassica napus); [20]): 4; Plant response rating, Redroot pigweed ([11]; Rate 62 g/ha, Postemergence): 9; Redroot pigweed plant response rating ([11]; Rate 62 g/ha, Preemergence): 4; Redroot pigweed plant response rating ([11]; Rate 125 g/ha, Postemergence): 10; Redroot pigweed plant response rating ([11]; Rate 125 g/ha, Preemergence): 10; Plant response rating, Redroot pigweed ([11]; Rate 250 g/ha, Postemergence): 10; Plant response rating, Redroot pigweed [11, 20]: 10; Plant response rating, Giant foxtail ([12]; Rate 62 g/ha, Postemergence): 2; Giant foxtail plant response rating ([12]; Rate 62 g/ha, Preemergence): 6; Giant foxtail plant response rating ([12]; Rate 125 g/ha, Postemergence): 6; Giant foxtail plant response rating ([12]; Rate 125 g/ha, Preemergence): 9; Plant response rating, Giant foxtail ([12]; Rate 250 g/ha, Postemergence): 9; Plant response rating, Giant foxtail [12, 20]: 10; Plant response rating, Morningglory ([13]; Rate 62 g/ha, Postemergence): 8; Morningglory plant response rating ([13]; Rate 62 g/ha, Preemergence): 1; Morningglory plant response rating ([13]; Rate 125 g/ha, Postemergence): 8; Morningglory plant response rating ([13]; Rate 125 g/ha, Preemergence): 1; Plant response rating, Morningglory ([13]; Rate 250 g/ha, Postemergence): 8; Plant response rating, Morningglory [13, 20]: 2; Wheat plant response rating ([14]; Rate 62 g/ha, Postemergence): 2; Wheat plant response rating ([14]; Rate 62 g/ha, Preemergence): 1; Wheat plant response rating ([14]; Rate 125 g/ha, Postemergence): 3; Plant response rating, Wheat ([14]; Rate 125 g/ha, Preemergence): 1; Plant response rating, Wheat ([14]; Rate 250 g/ha, Postemergence): 3; Plant response rating, Wheat [14, 20]: 2; Plant response rating, Bedstraw ([15]; Rate 62 g/ha, Postemergence): 9; Bedstraw plant response rating ([15]; Rate 62 g/ha): 2; Plant response rating, Bedstraw ([15]; Rate 125 g/ha, Postemergence): 9; Bedstraw plant response rating ([15]; Rate 125 g/ha): 2; Plant response rating, Bedstraw ([15]; Rate 250 g/ha, Postemergence): 10; Plant response rating, Bedstraw [15, 20]: 8
